Measured values: US20260285847A1, “SYMMETRIC AMINOINDOLE-LINKED TRIAZINE FOR A DUAL EFFECT ON ALPHA-SYNUCLEIN AND TAU ISOFORM 2N4R FIBRILLIZATION” (Purdue Research Foundation, priority 2023, published 2026)

Tests used:
Format in all cases: biochemical
[1] = target: T1, alpha-synuclein (α-syn) (Homo sapiens, UniProt P37840); assay: Thioflavin T (ThT) fluorescence assay of α-syn fibril formation; settings: compound 100 μM
T1 construct: purchased rPeptide
Method: Thioflavin fluorescence assays. Thioflavin fluorescence assays were used to monitor fibril formation of recombinant α-syn, tau isoform 2N4R, treated with control DMSO and different compounds. Kinetics of α-syn fibrillization were performed using thioflavin T (ThT) as published previously.^32′ ^37 The fluorescence emission experiments were performed with the excitation and emission wavelengths set at 440 and 485 nm, respectively, with a Synergy HT multi-mode microplate reader (BioTek, Winooski, VT). Samples were measured in three replicates and the experiments were repeated three times using at least two different stock solutions. For each time point, arbitrary units of fluorescence were calculated from the mean values normalized against the maximum value in each completed assay. All results contained in FIG. 1 were presented as mean±SEM.
FIG. 1. Chemical structure, physicochemical descriptors, and the effect of compounds on alpha-synuclein (α-syn) aggregation measured as fluorescence intensity using ThT assay. TPSA, Log P, and Log D were obtained with SwissADME. BBB and pKa were obtained from the Blood-Brain Barrier Prediction Server (https://www.cbligand.org/BBB/) and Chemaxon, respectively. CNS MPO scores were assessed as published previously, The ThT (%) represent the maximum fluorescence intensity obtained at the plateau phase of the kinetics of fibrillization using 6.25 μM of α-syn. Compounds were tested at 100 μM (molar ratio 1:16). BBB, blood-brain barrier; C log D, calculated distribution coefficient at 7.4; C log P, calculated partition coefficient; CNS MPO, Central Nervous System Multi Parameter Optimization; HBA, Hydrogen Bond Acceptor; HBD, Hydrogen Bond Donor; LR5, Lipinski's rule of five; pKa, negative log of acid dissociation constant; ThT, Thioflavin T; TPSA, Topological polar surface area.

[2] = target: T2, α-syn (Homo sapiens, UniProt P37840); assay: PICUP cross-linking assay of α-syn oligomer formation
T2 construct: purchased rPeptide
Method: PICUP is a technique in which oligomer formation is induced by cross-linking. To induce oligomerization by cross-linking, α-syn (from Rpeptide, LLC) and tau isoform 2N4R were diluted in 10 mM phosphate buffer (pH 7.4) to reach a final concentration of 10 μM. Different compounds were added to the protein solution at a final concentration of 50 μM, resulting in a molar ratio of 1:5. To confirm the gradual effect of compounds on the inhibition of α-syn oligomerization, compounds were tested at final concentration of 3.125, 6.25, 12.5, 25, and 50 μM. The controls consisted of samples without light exposition, without Ru(bpy) or ammonium persulfate, and without compound (i.e., 0.125% DMSO). The cross-linking reaction was initiated by the addition of 2 μL of Ru(bpy) (300 μM final concentration) and 2 μL ammonium persulfate (6 mM final concentration).^32 Samples were irradiated immediately. Light exposure was of a 1 second duration for α-syn and a 3 second duration for tau isoform 2N4R, with a 53 W (120 V) incandescent lamp installed in a homemade dark-box. Each tube contained a final volume of 20 μL. After irradiation, 8.3 μL of Laemmli loading buffer containing 15% 0-mercaptoethanol was immediately added to the solution, followed by incubation at 95° C. for 10 min. The cross-linked samples were separated on a 16% SDS-PAGE gel and visualized by Coomassie blue staining.

[3] = target: T3, tau isoform 2N4R (Homo sapiens, UniProt P10636); assay: PICUP cross-linking assay of tau oligomer formation
T3 construct: made in house; host or cells: E. coli BL21(DE3)
T3 sequence (P10636 1-441 isoform P10636-8): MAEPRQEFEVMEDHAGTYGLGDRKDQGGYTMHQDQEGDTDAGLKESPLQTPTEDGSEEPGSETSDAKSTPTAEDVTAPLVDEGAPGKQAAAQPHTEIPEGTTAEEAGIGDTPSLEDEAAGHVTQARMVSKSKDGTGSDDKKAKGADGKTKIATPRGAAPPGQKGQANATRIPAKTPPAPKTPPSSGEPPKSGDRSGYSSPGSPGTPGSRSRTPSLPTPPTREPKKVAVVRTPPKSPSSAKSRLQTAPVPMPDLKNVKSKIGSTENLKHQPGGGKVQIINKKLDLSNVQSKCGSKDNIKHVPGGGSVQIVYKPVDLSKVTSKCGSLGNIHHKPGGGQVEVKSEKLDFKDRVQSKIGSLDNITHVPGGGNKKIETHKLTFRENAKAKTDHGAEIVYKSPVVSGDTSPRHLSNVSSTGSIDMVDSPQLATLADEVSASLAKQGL
Method: Chemical and peptide source. DMSO and thioflavin-T (ThT) were purchased from Alfa Aesar (Ward Hill, MA). Procuration of recombinant α-syn was from rPeptide (WatKinsville, GA). The recombinant p-tau isoform 1N4R was prepared as published previously.^31, 36 Concerning the preparation of tau 2N4R, bacterial expression plasmid consisting of the vector pRK172 carrying a cDNA encoding the human Tau 2N4R isoform was a kind gift of Dr. David Eliezer (Weill Cornell Medicine). For protein expression, E. coli BL21(DE3) cells were transformed with the plasmid and grown in LB media supplemented with ampicillin (100 μg/mL). Protein over-expression was induced by the addition of 1 mM IPTG for 4 h at 37° C., and cells were pelleted by centrifugation at 6,000 g for 15 min at 4° C. The cells were resuspended in lysis buffer (20 mM MES, 400 mM NaCl, 0.2 mM MgCl2, 1 mM EGTA, protease inhibitor cocktail (P8340, Sigma Aldrich), 0.25 mg/mL lysozyme, and 1 μg/mL DNase I, pH 6.8) and lysed by a French press cell disruptor at 4° C., and the lysate was boiled for 20 min. Denatured proteins were pelleted by centrifugation at 30,000 g for 30 min at 4° C., and the supernatant was dialyzed overnight against cation exchange buffer (20 mM MES, 50 mM NaCl, 1 mM MgCl2, 1 mM EGTA, 2 mM DTT, 0.1 mM PMSF, pH 6.8). The dialysate was loaded onto a HiPrep SP HP column, and proteins were eluted with a linear gradient ranging from 50 mM to 1 M NaCl. Fractions containing tau isoform 2N4R were pooled, and the resulting protein solution was dialyzed against PBS (pH 7.4) and stored at −80° C.
PICUP is a technique in which oligomer formation is induced by cross-linking. To induce oligomerization by cross-linking, α-syn (from Rpeptide, LLC) and tau isoform 2N4R were diluted in 10 mM phosphate buffer (pH 7.4) to reach a final concentration of 10 μM. Different compounds were added to the protein solution at a final concentration of 50 μM, resulting in a molar ratio of 1:5. […]

c1cc(Nc2ncnc(Nc3cccc4[nH]ccc34)n2)c2cc[nH]c2c1 [Compound 10, N2,N4-bis(1H-indol-4-yl)-1,3,5-triazine-2,4-diamine]
lag time of α-syn fibril elongation ([1]; α-syn 6 μM): delayed slightly the lag time
activity at 100 µM ([1]; α-syn 6.25 μM (molar ratio 1:16), compared with DMSO control, mean±SEM, read-out: ThT fluorescence intensity (FI), maximum at the plateau phase of α-syn fibrillization): 13.5 ± 1.7%
α-syn oligomer formation (PICUP, in words) ([2]; compound 50 μM, high molecular weight oligomers around 50 kDa): inhibited both α-syn and tau oligomer formation
α-syn oligomerization at different concentrations (PICUP) ([2]; compound 3.125 to 50 μM): effective in reducing oligomerization of α-syn and tau isoform 2N4R in a dose-dependent manner
tau oligomer formation (PICUP, in words) ([3]; compound 50 μM, high molecular weight oligomers around 190 kDa): inhibited both α-syn and tau oligomer formation
tau isoform 2N4R oligomerization at different concentrations (PICUP) ([3]; compound 3.125 to 50 μM): effective in reducing oligomerization of α-syn and tau isoform 2N4R in a dose-dependent manner
